Measurements from patent publication US10787436B2, “Inhibitors of cyclin-dependent kinase 7 (CDK7)” (Dana-Farber Cancer Institute, Inc., priority 2012, dated 2020).

Assays:
CDK7 occupancy = assay: CDK7 ChIP-seq in Jurkat cells; type: cell-based, human
Experimental: After the indicated treatment time, cells were crosslinked for 10 minutes at room temperature by the addition of one-tenth of the volume of 11% formaldehyde solution (11% formaldehyde, 50 mM Hepes (pH 7.3), 100 mM NaCl, 1 mM EDTA (pH 8.0), 0.5 mM EGTA (pH 8.0)) to the growth media followed by two washes with PBS. Following the final PBS wash, supernatant was aspirated, and the cell pellet was flash frozen in liquid nitrogen. Frozen crosslinked cells were stored at −80° C.
50 μl of Dynal magnetic beads (Sigma) were blocked with 0.5% BSA (w/v) in PBS. Magnetic beads were bound with 5 μg of the indicated antibody. Antibodies used are as follows: Total RNAP II (Rpb1 N-terminus): Santa Cruz sc-899; CDK7: Bethyl A300-405A. Crosslinked cells were lysed with lysis buffer 1 (50 mM Hepes (pH 7.3), 140 mM NaCl, 1 mM EDTA, 10% glycerol, 0.5% NP-40, and 0.25% Triton X-100) and washed with lysis buffer 2 (10 mM Tris-HCl (pH 8.0), 200 mM NaCl, 1 mM EDTA (pH 8.0) and 0.5 mM EGTA (pH 8.0)). […]
Illumina sequencing libraries were generated, and data were processed according to Lin et al., Cell (2012) 151:56-67. […] These criteria preserved only reads that mapped uniquely to the genome with 1 or fewer mismatches. […]

143B = assay: Proliferation assay, CellTiter-Glo, 72 hour; type: cell-based; conditions: osteosarcoma cell line, read-out: Inhibition of proliferation, 143B
CDK1/cyclin B = CDK1/cyclin B (Homo sapiens (Human), UniProt P06493); assay: Life Technologies Z'-Lyte kinase assay, CDK1; type: biochemical; conditions: read-out: Calculated IC50, CDK1/cyclin B
CDK1/cyclin B, sequence (P06493 whole entry): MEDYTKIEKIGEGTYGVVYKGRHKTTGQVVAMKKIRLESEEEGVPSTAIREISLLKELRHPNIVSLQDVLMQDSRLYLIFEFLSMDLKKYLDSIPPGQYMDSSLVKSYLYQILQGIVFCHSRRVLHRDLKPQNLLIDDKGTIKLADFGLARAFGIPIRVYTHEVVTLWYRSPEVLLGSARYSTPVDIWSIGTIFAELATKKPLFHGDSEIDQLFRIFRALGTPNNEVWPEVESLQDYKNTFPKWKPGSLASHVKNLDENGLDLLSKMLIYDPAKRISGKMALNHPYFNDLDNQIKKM
CDK1/cyclin B, sequence (P14635 whole entry partner): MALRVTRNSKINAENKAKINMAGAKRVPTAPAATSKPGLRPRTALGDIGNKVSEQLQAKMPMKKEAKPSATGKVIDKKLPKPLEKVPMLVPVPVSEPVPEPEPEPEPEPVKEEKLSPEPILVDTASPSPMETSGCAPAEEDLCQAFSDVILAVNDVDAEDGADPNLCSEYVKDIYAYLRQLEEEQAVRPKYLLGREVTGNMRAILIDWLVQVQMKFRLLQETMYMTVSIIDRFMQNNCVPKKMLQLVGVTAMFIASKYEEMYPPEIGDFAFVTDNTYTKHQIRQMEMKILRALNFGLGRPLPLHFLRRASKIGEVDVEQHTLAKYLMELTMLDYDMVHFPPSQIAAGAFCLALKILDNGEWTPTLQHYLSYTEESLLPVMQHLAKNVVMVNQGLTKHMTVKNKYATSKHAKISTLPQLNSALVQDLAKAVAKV

FLAG-CDK7 WT = FLAG-CDK7 WT (Homo sapiens (Human), UniProt P50613); assay: In vitro kinase assay of FLAG-CDK7 immunoprecipitated from treated HCT116 cells; type: cell-based; conditions: HCT116 cells treated 4 hours, dose-response
FLAG-CDK7 WT, sequence (P50613 whole entry): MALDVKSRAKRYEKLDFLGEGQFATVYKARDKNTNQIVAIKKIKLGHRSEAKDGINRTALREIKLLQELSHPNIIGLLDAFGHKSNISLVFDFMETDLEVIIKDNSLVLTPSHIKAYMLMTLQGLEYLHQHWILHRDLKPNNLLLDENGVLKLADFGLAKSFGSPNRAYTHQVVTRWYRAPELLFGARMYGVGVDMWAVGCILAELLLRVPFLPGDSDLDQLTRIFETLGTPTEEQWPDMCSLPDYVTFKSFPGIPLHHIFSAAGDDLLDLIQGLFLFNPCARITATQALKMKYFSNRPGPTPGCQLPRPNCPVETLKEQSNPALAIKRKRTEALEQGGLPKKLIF
FLAG-CDK7 WT, sequence (P51946 whole entry partner): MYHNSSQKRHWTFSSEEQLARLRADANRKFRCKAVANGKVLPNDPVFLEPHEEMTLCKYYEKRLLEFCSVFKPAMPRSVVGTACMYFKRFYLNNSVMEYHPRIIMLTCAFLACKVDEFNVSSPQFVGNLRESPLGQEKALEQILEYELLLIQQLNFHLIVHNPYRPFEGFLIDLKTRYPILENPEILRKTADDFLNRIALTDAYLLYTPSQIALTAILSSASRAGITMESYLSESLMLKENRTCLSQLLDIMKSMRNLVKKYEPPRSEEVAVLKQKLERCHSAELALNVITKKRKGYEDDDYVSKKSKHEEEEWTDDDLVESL
FLAG-CDK7 WT, sequence (P51948 whole entry partner): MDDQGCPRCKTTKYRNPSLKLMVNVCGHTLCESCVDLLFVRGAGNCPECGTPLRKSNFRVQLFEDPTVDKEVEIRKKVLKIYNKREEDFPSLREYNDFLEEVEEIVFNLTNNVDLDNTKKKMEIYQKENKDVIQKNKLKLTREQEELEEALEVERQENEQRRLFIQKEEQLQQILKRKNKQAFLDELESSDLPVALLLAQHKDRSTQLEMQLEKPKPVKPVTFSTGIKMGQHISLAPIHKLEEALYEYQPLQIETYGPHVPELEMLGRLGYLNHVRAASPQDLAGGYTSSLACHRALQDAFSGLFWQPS
Experimental: Following the treatment, the cells were washed 2-fold with cold PBS and then lysed in the following lysis buffer: 50 mM TrisHCl pH 8.0, 150 mM NaCl, 1% NP-40, 5 mM EDTA, 1 mM DTT, and protease/phosphatase cocktails. Following clearance, the lysates were treated with compound I-49 for pulldown (or CDK7 antibody for IP) overnight at 4° C. The lysates were then incubated with streptavidin agarose for pulldown (or Protein G Agarose for IP) for an additional 2-3 hours at 4° C. Agarose beads were washed 5 times with a lysis buffer and then boiled in 2X SDS for 10 minutes at 95° C.
In vitro kinase assays with immunoprecipitated proteins (or recombinant CAK complexes) were performed as follows. Kinase reactions were performed in 25 μL of final volume of reaction buffer (50 mM Hepes, pH 7.5, 150 mM NaCl, 10 mM MgCl2, 5% glycerol, 25 μM ATP, and 10 μCi of [γ-32P]ATP). Each reaction contained 1 μg of RNAP II. Incubation was at 30° C. for 30-45 min. Reactions were terminated by addition of 5 μL of 5×SDS-PAGE sample buffer and incubated at 95° C. for 5 min. Reactions were analyzed by SDS-PAGE, and the dried gel was exposed to film or PhosphorImager plate.
HCT116 cells were generated stably expressing FLAG-CDK7 WT and C312S. […] CDK7 was then immunoprecipitated (IP) from each combination treatment using a FLAG antibody, and washed IPs were subjected to in vitro kinase assays (FIG. 4F). […]

hTERT-HME1 = assay: Proliferation assay, CellTiter-Glo, 72 hour; type: cell-based; conditions: immortalized normal mammary epithelial cell line, read-out: Inhibition of proliferation, hTERT-HME1

- IC50 (CDK1/cyclin B): 100 to 1000 nM
Compound: CN(C)C/C=C/C(=O)Nc1ccc(C(=O)Nc2cccc(Nc3ncc(Cl)c(-c4c[nH]c5ccccc45)n3)c2)cc1 [Formula I-23]
- CDK7 occupancy (association with chromatin) (CDK7 occupancy): did not disrupt CDK7 occupancy
- IC50 (143B): > 5000 nM
- Inhibition of FLAG-CDK7 WT kinase activity (FLAG-CDK7 WT): inhibited FLAG-CDK7 WT in a dose-dependent fashion
- IC50 (hTERT-HME1): < 500 nM
